target: T1, Rabbit Liver Esterase (E.C. 3.1.1.1) (Oryctolagus cuniculus, UniProt P12337); experiment: Inhibition constants, esterase hydrolysis of o-nitrophenyl butyrate followed spectrophotometrically; type: biochemical; conditions: RLE; 50 mM Tris pH=8.0; enzyme and inhibitor incubated at ambient temperature for 20 minutes
T1 construct: from tissue; host or cells: rabbit liver
Description: Inhibition constants were measured in 50 mM Tris pH=8.0. Enzyme and inhibitor were incubated at ambient temperature for 20 minutes. Substrate for the enzyme was then added and the rate of hydrolysis was followed spectrophotometrically. The substrate for PLE and RLE was o-nitro-phenylbutrate and for AChE was acetyl thiocholine and Ellman's reagent.

T1 sequence (P12337 19-565): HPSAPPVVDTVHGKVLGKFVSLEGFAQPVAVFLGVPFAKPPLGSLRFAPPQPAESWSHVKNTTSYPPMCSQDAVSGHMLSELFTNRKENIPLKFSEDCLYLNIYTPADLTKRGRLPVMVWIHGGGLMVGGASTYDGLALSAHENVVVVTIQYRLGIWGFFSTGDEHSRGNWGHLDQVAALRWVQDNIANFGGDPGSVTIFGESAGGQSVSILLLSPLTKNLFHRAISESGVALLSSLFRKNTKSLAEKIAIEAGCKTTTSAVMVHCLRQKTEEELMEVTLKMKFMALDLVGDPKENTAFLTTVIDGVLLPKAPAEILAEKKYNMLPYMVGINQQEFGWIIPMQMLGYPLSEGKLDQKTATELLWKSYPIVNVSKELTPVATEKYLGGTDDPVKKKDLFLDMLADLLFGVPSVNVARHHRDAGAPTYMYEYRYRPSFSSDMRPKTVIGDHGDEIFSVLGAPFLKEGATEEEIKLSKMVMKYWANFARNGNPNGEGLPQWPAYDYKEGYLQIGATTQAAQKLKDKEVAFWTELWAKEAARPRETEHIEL

| Compound | Ki [nM] |
| --- | --- |
| O=C(CCc1ccc(O)cc1)C(F)(F)C(F)(F)F [1,1,1,2,2-pentafluoro-5-(4-hydroxyphenyl)-3-pentanone] | 800 |
| O=C(Cc1ccc(O)cc1)C(F)(F)F [1,1,1-trifluoro-3-(4-hydroxyphenyl)propanone] | 2000 |
| O=C(CCc1cccc(O)c1)C(F)(F)F [1,1,1-trifluoro-4-(3-hydroxyphenyl)-2-butanone] | 100 |
| O=C(CCc1ccc(O)cc1)C(F)(F)F [1,1,1-trifluoro-4-(4-hydroxyphenyl)-2-butanone] | 20 |
| O=C(CCCc1cccc(O)c1)C(F)(F)F [1,1,1-trifluoro-5-(3-hydroxyphenyl)-2-pentanone] | 170 |
| O=C(CCCc1ccc(O)cc1)C(F)(F)F [1,1,1-trifluoro-5-(4-hydroxyphenyl)-2-pentanone] | 10 |
| O=C(CCCCc1ccc(O)cc1)C(F)(F)F [1,1,1-trifluoro-6-(4-hydroxyphenyl)-2-hexanone] | 20 |

Source: US5188937A, “Layered sandwich assay method for chlamydia and materials therefor” (Becton, Dickinson and Company, priority 1991, dated 1993)
